Reference: patent US20250213574A1, “THERAPEUTIC COMBINATIONS COMPRISING UBIQUITIN- SPECIFIC-PROCESSING PROTEASE 1 (USP1) INHIBITORS AND CHEMOTHERAPY AGENTS” (KSQ Therapeutics, Inc., priority 2022, published 2025)
Where “and” joins values, the source holds several entries; their conditions need not be identical. Identical values can stand only once. Like-named read-outs stand apart in the source and are kept apart here. Each block holds one compound with its values, some of them ahead of it.

Legend:
Type in all cases: cell-based
MSTO211H = assay: Colony formation (CFU) assay, MSTO211H; details: pleura, CFU ~14 days, wells with DMSO or 300 nM Compound 1, read-out: Chemotherapy nM IC50s
Description: (§1) In vitro experiments were conducted using the colony formation unit (CFU) assay on various cell lines. The CFU assay involved first establishing what cell plating density enabled the development of clearly interspersed colonies on a six-well plate when left to grow for around 14 days. […] At or around day 14 when clearly interspersed colonies were visible in the DMSO-treated wells, the cells were fixed and stained using 0.1% crystal violet in 10% ethanol for 20 minutes at room temperature. The plates were imaged then the amount of crystal violet stain in each well was quantified by extracting the crystal violet into 10% acetic acid and the absorbance measured at 565 nm.
(§2) For certain cell lines, multiple IC50 values were taken, and those are separated by commas. Synergy scores are in parentheticals.

A549 = assay: Colony formation (CFU) assay, A549; details: Homo sapiens, 336 h; A549, lung; CFU ~14 days; wells with DMSO or 300 nM Compound 1; read-out: Chemotherapy nM IC50s
Description: as §1, §2

NCIH1915 = assay: Colony formation (CFU) assay, NCIH1915; details: NCI-H1915, 336 h; NCIH1915, lung; CFU ~14 days; wells with DMSO or 300 nM Compound 1; read-out: Chemotherapy nM IC50s
Description: as §1, §2

MERO14 = assay: Colony formation (CFU) assay, MERO14; details: 336 h, CFU ~14 days, wells with DMSO or 300 nM Compound 1, read-out: Chemotherapy nM IC50s
Description: as §1, §2

NCIH2452 = assay: Colony formation (CFU) assay, NCIH2452; details: Homo sapiens, NCI-H2452, 336 h; NCIH2452, pleura; CFU ~14 days; wells with DMSO or 300 nM Compound 1; read-out: Chemotherapy nM IC50s
Description: as §1, §2

ACCMESO1 = assay: Colony formation (CFU) assay, ACCMESO1; details: ACCMESO1, pleura, CFU ~14 days, wells with DMSO or 300 nM Compound 1, read-out: Chemotherapy nM IC50s
Description: as §1, §2

MERO83 = assay: Colony formation (CFU) assay, MERO83; details: 336 h, CFU ~14 days, wells with DMSO or 300 nM Compound 1, read-out: Chemotherapy nM IC50s
Description: as §1, §2

CAPAN2 = assay: Colony formation (CFU) assay, CAPAN2; details: CAPAN2, pancreas, CFU ~14 days, wells with DMSO or 300 nM Compound 1, read-out: Chemotherapy nM IC50s
Description: as §1, §2

HCT15 = assay: Colony formation (CFU) assay, HCT15; details: Homo sapiens, HCT-15, 336 h; HCT15, colon; CFU ~14 days; wells with DMSO or 300 nM Compound 1; read-out: Chemotherapy nM IC50s
Description: as §1, §2

UWB1289 = assay: Colony formation (CFU) assay, UWB1289; details: 336 h; UWB1289, ovary; CFU ~14 days; wells with DMSO or 300 nM Compound 1; read-out: Chemotherapy nM IC50s
Description: as §1, §2

COV362 = assay: Colony formation (CFU) assay, COV362; details: COV362, 336 h, read-out: Chemotherapy nM IC50s
Description: as §1, §2

various cell lines = assay: Colony formation (CFU) assay, summary over cell lines of Table 1; details: combination of USP1 inhibitor (Compound 1, 300 nM) and the chemotherapy agent
Description: as §1
In certain cell lines, combinations of the disclosure are synergistic. In some aspects, these combinations are determined to have a Bliss score is about 6, about 7, about 8, about 9, about 10, about 11, about 12, about 13, about 14, about 15, about 16, about 17, about 18, about 19, about 20 or about 25.

ASPC1 = assay: Colony formation (CFU) assay, ASPC1; details: ASPC1, pancreas
Description: as §1, §2

OVSAHO = assay: Colony formation (CFU) assay, OVSAHO; details: Homo sapiens, 336 h, ovary, CFU ~14 days, wells with DMSO or 300 nM Compound 1, read-out: Chemotherapy nM IC50s
Description: as §1, §2

GSU = assay: Colony formation (CFU) assay, GSU; details: stomach, chemotherapy agent in combination with 300 nM Compound 1
Description: as §1, §2

HPAC = assay: Colony formation (CFU) assay, HPAC; details: Homo sapiens, 336 h, pancreas, CFU ~14 days, wells with DMSO or 300 nM Compound 1, read-out: Chemotherapy nM IC50s
Description: as §1, §2

SW948 = assay: Colony formation (CFU) assay, SW948; details: SW948, colon; for IC50: CFU ~14 days, wells with DMSO or 300 nM Compound 1, read-out: Chemotherapy nM IC50s
Description: as §1, §2

KYSE70 = assay: Colony formation (CFU) assay, KYSE70; details: KYSE70, esophagus; CFU ~14 days; wells with DMSO or 300 nM Compound 1; read-out: Chemotherapy nM IC50s
Description: as §1, §2

KALS1 = assay: Colony formation (CFU) assay, KALS1; details: KALS1, nervous system; CFU ~14 days; wells with DMSO or 300 nM Compound 1; read-out: Chemotherapy nM IC50s
Description: as §1, §2

UMUC3 = assay: Colony formation (CFU) assay, UMUC3; details: UMUC3, bladder; CFU ~14 days; wells with DMSO or 300 nM Compound 1; read-out: Chemotherapy nM IC50s
Description: as §1, §2

SUM149PT = assay: Colony formation (CFU) assay, SUM149PT; details: breast, CFU ~14 days, wells with DMSO or 300 nM Compound 1, read-out: Chemotherapy nM IC50s
Description: as §1, §2

KU1919 = assay: Colony formation (CFU) assay, KU1919; details: KU1919, bladder; CFU ~14 days; wells with DMSO or 300 nM Compound 1; read-out: Chemotherapy nM IC50s
Description: as §1, §2

HCC1806 = assay: Colony formation (CFU) assay, HCC1806; details: HCC1806, breast; CFU ~14 days; wells with DMSO or 300 nM Compound 1; read-out: Chemotherapy nM IC50s (converted)
Description: as §1, §2

NCIH596 = assay: Colony formation (CFU) assay, NCIH596; details: NCIH596, lung; CFU ~14 days; wells with DMSO or 300 nM Compound 1; read-out: Chemotherapy nM IC50s
Description: as §1, §2

647V = assay: Colony formation (CFU) assay, 647V; details: bladder, CFU ~14 days, wells with DMSO or 300 nM Compound 1, read-out: Chemotherapy nM IC50s
Description: as §1, §2

HCT116 = assay: Colony formation (CFU) assay, HCT116; details: HCT116, colon; CFU ~14 days; wells with DMSO or 300 nM Compound 1; read-out: Chemotherapy nM IC50s
Description: as §1, §2

MDAMB231 = assay: Colony formation (CFU) assay, MDAMB231; details: MDAMB231, breast; CFU ~14 days; wells with DMSO or 300 nM Compound 1; read-out: Chemotherapy nM IC50s
Description: as §1, §2

KYSE270 = assay: Colony formation (CFU) assay, KYSE270; details: KYSE270, esophagus; CFU ~14 days; wells with DMSO or 300 nM Compound 1; read-out: Chemotherapy nM IC50s
Description: as §1, §2

[1] = chemotherapy agent in combination with 300 nM Compound 1

IC50 (MSTO211H; Homo sapiens, MSTO-211H, 336 h): 41 nM
IC50 (MSTO211H): 50 nM
IC50 (A549): 6870 nM
IC50 (NCIH1915): 185 nM
IC50 (MERO14): > 3000 nM
IC50 (NCIH2452): 48 nM
IC50 (ACCMESO1; ACC-MESO-1, 336 h): 172 nM
IC50 (MERO83): > 3000 nM
Compound: Nc1nc2[nH]cc(CCc3ccc(C(=O)N[C@@H](CCC(=O)O)C(=O)O)cc3)c2c(=O)[nH]1 [Pemetrex, pemetrexed]

Compound: CC[C@@]1(O)C(=O)OCc2c1cc1n(c2=O)Cc2cc3ccccc3nc2-1 [Campto., camptothecin]
IC50 (CAPAN2): 11 nM
IC50 (CAPAN2; Homo sapiens, Capan-2, 336 h): 8 nM
IC50 (HCT15): 5 nM
IC50 (UWB1289): 18 nM
IC50 (COV362): 274 nM
synergy of combination with USP1 inhibitor (various cell lines): synergy was detected
synergy score (ASPC1; [1]): −5
IC50 (ASPC1; Homo sapiens, 336 h, CFU ~14 days, wells with DMSO or 300 nM Compound 1, read-out: Chemotherapy nM IC50s): 3 nM
IC50 (OVSAHO): 177 nM
synergy score (GSU): 13
IC50 (HPAC): 5 nM
IC50 (SW948; Homo sapiens, SW948, 336 h): 10 nM
IC50 (SW948): 6 nM
synergy score (SW948; [1]): (−3)

Compound: CO[C@@]12[C@H](COC(N)=O)C3=C(C(=O)C(C)=C(N)C3=O)N1C[C@@H]1N[C@@H]12 [Mito. C, mitomycin C]
IC50 (KYSE70): 14 nM and 12 nM
IC50 (KALS1): 632 nM
IC50 (UMUC3): 18 nM and 12 nM
IC50 (SUM149PT): 5 nM
IC50 (KU1919): 16 nM
IC50 (HCC1806): 1 nM and 2 nM and < 1 nM
IC50 (NCIH596): 10 nM
IC50 (647V): 15 nM
IC50 (HCT116): 19 nM
IC50 (ACCMESO1): 10 nM and 13 nM
IC50 (MDAMB231): 14 nM
IC50 (KYSE270): 15 nM and 11 nM
